Molecular target: α7 nAChR subtype (Rattus norvegicus, UniProt Q05941)
Format: binding
Conditions: read-out: KD of radioligand (saturation curve, one site model)

α7 nAChR subtype, sequence (Q05941 23-502 limits assumed): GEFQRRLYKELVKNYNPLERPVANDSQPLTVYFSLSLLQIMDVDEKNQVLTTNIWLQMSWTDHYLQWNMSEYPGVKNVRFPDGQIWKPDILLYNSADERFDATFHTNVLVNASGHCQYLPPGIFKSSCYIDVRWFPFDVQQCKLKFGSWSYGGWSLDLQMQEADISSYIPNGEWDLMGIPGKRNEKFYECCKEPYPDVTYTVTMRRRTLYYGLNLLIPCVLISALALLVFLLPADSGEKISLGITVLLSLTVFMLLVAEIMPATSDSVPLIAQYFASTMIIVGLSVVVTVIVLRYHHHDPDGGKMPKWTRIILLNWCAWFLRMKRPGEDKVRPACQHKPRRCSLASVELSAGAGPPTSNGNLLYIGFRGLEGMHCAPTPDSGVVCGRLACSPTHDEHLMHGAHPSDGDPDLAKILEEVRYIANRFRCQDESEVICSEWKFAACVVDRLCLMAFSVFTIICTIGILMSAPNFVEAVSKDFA

Work on [^125I]-α-Bungarotoxin [[^125I]-α-BTX] yielded a Kd of 1.67 nM.
